Drawing on the NIST ThermoML archive (doi:10.1016/j.jct.2012.07.006), this text covers mass density and excess molar enthalpy for 13 compounds.

For data set [1] the following is noted: 298.15 K; 101.33 kPa; Liquid; Pycnometric method.
A short description of data set [2]: excess molar enthalpy (molar enthalpy of mixing); xn = mol fraction of the nth substance listed. Conditions: 298.15 K, 101 kPa, Liquid, Calvet calorimetry.

Numbers after ± are expanded uncertainties.

As to `CNc1ccccc1` [N-methylaniline], the mass density in data set [1] came to 982.237 ± 20 kg/m3.
For the compound `CNc1ccccc1` [N-methylaniline] + C1CCCCC1, the excess molar enthalpy is 0.826 ± 0.018 kJ/mol in data set [2] (x1 = 0.0978); 1.3 ± 0.028 kJ/mol in data set [2] (x1 = 0.1987); 1.52 ± 0.033 kJ/mol in data set [2] (x1 = 0.2934); 1.61 ± 0.034 kJ/mol in data set [2] (x1 = 0.4002); 1.63 ± 0.035 kJ/mol in data set [2] (x1 = 0.4937); 1.54 ± 0.033 kJ/mol in data set [2] (x1 = 0.5934). Moreover, the results for the excess molar enthalpy in data set [2] (x1 = 0.6935), in data set [2] (x1 = 0.7953) and in data set [2] (x1 = 0.8938) were 1.31 ± 0.028 kJ/mol, 0.972 ± 0.021 kJ/mol and 0.568 ± 0.012 kJ/mol, respectively.
Turning to `CNc1ccccc1` [N-methylaniline] + CCCCCCC, the excess molar enthalpy came out at 0.818 ± 0.018 kJ/mol in data set [2] (x1 = 0.102); 1.29 ± 0.028 kJ/mol in data set [2] (x1 = 0.1982); 1.54 ± 0.033 kJ/mol in data set [2] (x1 = 0.2968); 1.65 ± 0.035 kJ/mol in data set [2] (x1 = 0.3935); 1.68 ± 0.036 kJ/mol in data set [2] (x1 = 0.4983); 1.6 ± 0.034 kJ/mol in data set [2] (x1 = 0.5982). For the same compound, the excess molar enthalpy in data set [2] (x1 = 0.6934) worked out at 1.44 ± 0.031 kJ/mol; in data set [2] (x1 = 0.7941), 1.13 ± 0.024 kJ/mol; in data set [2] (x1 = 0.8939) it was 0.679 ± 0.015 kJ/mol.
As for `CNc1ccccc1` [N-methylaniline] + CCCCCCCC, the excess molar enthalpy was determined as 0.853 ± 0.018 kJ/mol in data set [2] (x1 = 0.1045); 1.35 ± 0.029 kJ/mol in data set [2] (x1 = 0.2002); 1.62 ± 0.035 kJ/mol in data set [2] (x1 = 0.303); 1.75 ± 0.037 kJ/mol in data set [2] (x1 = 0.4117); 1.77 ± 0.038 kJ/mol in data set [2] (x1 = 0.4956); 1.69 ± 0.036 kJ/mol in data set [2] (x1 = 0.5965). The excess molar enthalpy in data set [2] (x1 = 0.6933) came to 1.51 ± 0.032 kJ/mol; in data set [2] (x1 = 0.791) it was 1.19 ± 0.026 kJ/mol; in data set [2] (x1 = 0.889) it was 0.769 ± 0.017 kJ/mol.
On to `CNc1ccccc1` [N-methylaniline] + CCCCCCCCCC, for which the excess molar enthalpy in data set [2] (x1 = 0.1015) was 0.881 ± 0.019 kJ/mol; in data set [2] (x1 = 0.201) it was 1.42 ± 0.03 kJ/mol; in data set [2] (x1 = 0.2993), 1.73 ± 0.037 kJ/mol; in data set [2] (x1 = 0.3848) it was 1.88 ± 0.04 kJ/mol; in data set [2] (x1 = 0.487), 1.92 ± 0.041 kJ/mol; in data set [2] (x1 = 0.5963), 1.84 ± 0.039 kJ/mol. Further, the excess molar enthalpy in data set [2] (x1 = 0.6951) stood at 1.65 ± 0.035 kJ/mol; in data set [2] (x1 = 0.7934), 1.32 ± 0.028 kJ/mol; in data set [2] (x1 = 0.8899) it was 0.857 ± 0.018 kJ/mol.
Take `CNc1ccccc1` [N-methylaniline] + Cc1ccccc1: the excess molar enthalpy in data set [2] (x1 = 0.0991) was 0.224 ± 0.005 kJ/mol; in data set [2] (x1 = 0.1956), 0.368 ± 0.008 kJ/mol; in data set [2] (x1 = 0.2952) it was 0.459 ± 0.01 kJ/mol; in data set [2] (x1 = 0.399) it was 0.5 ± 0.011 kJ/mol; in data set [2] (x1 = 0.4973), 0.497 ± 0.011 kJ/mol; in data set [2] (x1 = 0.5922) it was 0.465 ± 0.01 kJ/mol. Moreover, the excess molar enthalpy amounted to 0.387 ± 0.009 kJ/mol in data set [2] (x1 = 0.6882), 0.287 ± 0.006 kJ/mol in data set [2] (x1 = 0.7892) and 0.166 ± 0.004 kJ/mol in data set [2] (x1 = 0.8851).
Regarding `C1CCCCC1` [cyclohexane], the mass density in data set [1] came to 773.96 ± 20 kg/m3.
As to `CCCCCCCCCC` [decane], in data set [1], the mass density worked out at 726.47 ± 20 kg/m3.
Same read-out and setting: next, `CCCCCCC` [heptane]: 679.71 ± 20 kg/m3; `CCCCCCCCCCCCCCCC` [hexadecane]: 769.91 ± 20 kg/m3; `CCCCCCCC` [octane]: 698.75 ± 20 kg/m3.
Regarding `CCCCCCCCCCCCCC` [tetradecane], in data set [1], the mass density was determined as 759.19 ± 20 kg/m3.
Turning to `Cc1ccccc1` [toluene], the mass density in data set [1] was found to be 862.346 ± 24 kg/m3.
